Experimental findings from PubChem BioAssay AID330 (DTP/NCI, 2004) are described below.

SMILES strings stand for the structures. Several values for one entry are separate records, joined by “and”; a condition that tells them apart may be missing. Identical values can stand only once. Inconclusive results and toxic doses are left out.

This assay deals with P388 leukemia ip, CD2F1 mice, survival T/C. Kind of assay: NCI In Vivo Anticancer Drug Screen. Data for tumor model P388 Leukemia (intraperitoneal) in CD2F1 (CDF1) mice. The conditions noted are these: endpoint: median survival time, higher = longer survival. Put shortly:
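Mice carrying the transplanted tumor received test compound or vehicle. Survival was recorded in each group, and the value is the treated-group measurement divided by that of the vehicle-treated control group.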

[1] abbreviates: dose: 100.0 mg/kg/injection, schedule: Q04DX003 (ip), vehicle: saline with Tween-80.
The mark [2] stands for this setting: dose: 200.0 mg/kg/injection, schedule: Q04DX003 (ip), vehicle: saline with Tween-80.
Where [3] appears, read: dose: 400.0 mg/kg/injection, schedule: Q04DX003 (ip), vehicle: saline with Tween-80.
Setting [4] is: dose: 100.0 mg/kg/injection, schedule: Q01DX009 (ip), vehicle: saline with Tween-80.
Setting [5] is: dose: 200.0 mg/kg/injection, schedule: Q01DX009 (ip), vehicle: saline with Tween-80.
The mark [6] stands for this setting: dose: 60.0 mg/kg/injection, schedule: Q01DX005 (ip), vehicle: saline with Tween-80.
[7] abbreviates: dose: 100.0 mg/kg/injection, schedule: Q01DX001 (ip), vehicle: saline with Tween-80.
The mark [8] stands for this setting: dose: 200.0 mg/kg/injection, schedule: Q01DX001 (ip), vehicle: saline with Tween-80.
[9] abbreviates: dose: 120.0 mg/kg/injection, schedule: Q01DX005 (ip), vehicle: saline with Tween-80.
Setting [10] is: dose: 240.0 mg/kg/injection, schedule: Q01DX005 (ip), vehicle: saline with Tween-80.
Setting [11] is: dose: 50.0 mg/kg/injection, schedule: Q01DX005 (ip), vehicle: saline with Tween-80.
[12] abbreviates: dose: 100.0 mg/kg/injection, schedule: Q01DX005 (ip), vehicle: saline with Tween-80.
The mark [13] stands for this setting: dose: 200.0 mg/kg/injection, schedule: Q01DX005 (ip), vehicle: saline with Tween-80.
[14] abbreviates: dose: 400.0 mg/kg/injection, schedule: Q01DX001 (ip), vehicle: saline with Tween-80.
[15] abbreviates: dose: 60.0 mg/kg/injection, schedule: Q01DX005 (ip), vehicle: Klucel (hydroxypropylcellulose) (HPC).
[16] abbreviates: dose: 120.0 mg/kg/injection, schedule: Q01DX005 (ip), vehicle: Klucel (hydroxypropylcellulose) (HPC).
[17] abbreviates: dose: 240.0 mg/kg/injection, schedule: Q01DX005 (ip), vehicle: Klucel (hydroxypropylcellulose) (HPC).
Where [18] appears, read: dose: 6.25 mg/kg/injection, schedule: Q01DX009 (ip), vehicle: water.
[19] abbreviates: dose: 12.5 mg/kg/injection, schedule: Q01DX009 (ip), vehicle: water.
The mark [20] stands for this setting: dose: 25.0 mg/kg/injection, schedule: Q01DX009 (ip), vehicle: water.

As to `C[C@H](C(O)CC(=O)C(C)(C)O)[C@H]1CC[C@@]2(C)[C@@H]3CC[C@H]4C(C)(C)[C@@H](OC5OC(COC6OC(CO)C(O)C(O)C6O)C(O)C(O)C5O)CC[C@]4(C)C3=CC[C@]12C` (some centres not stated), the T/C runs as follows: (dose: 9.25 mg/kg/injection, schedule: Q01DX005 (ip), vehicle: saline) 100 % of control; (dose: 18.5 mg/kg/injection, schedule: Q01DX005 (ip), vehicle: saline) 100 % of control; (dose: 37.0 mg/kg/injection, schedule: Q01DX005 (ip), vehicle: saline) 112 % of control; (dose: 74.0 mg/kg/injection, schedule: Q01DX005 (ip), vehicle: saline) 105 % of control.

As to `CC(=O)[C@H]1CC[C@H]2[C@@H]3CCC4=CC(=O)[C@H](C)C[C@]4(C)[C@H]3C(=O)C[C@]12C`, the T/C under setting [1] was 100 % of control, the T/C under setting [2] is 95 % of control and the T/C under setting [3] is 95 % of control.

On to `CN(C)CCCC[N+](C)(C)Cc1ccc(C[N+](C)(C)CCCC[N+](C)(C)Cc2ccc(CCl)cc2)cc1`, for which the T/C (dose: 3.12 mg/kg/injection, schedule: Q04DX003 (ip), vehicle: saline) was 100 % of control; the T/C (dose: 6.25 mg/kg/injection, schedule: Q04DX003 (ip), vehicle: saline) was 94 % of control; the T/C (dose: 12.5 mg/kg/injection, schedule: Q04DX003 (ip), vehicle: saline) is 100 % of control and 111 % of control and 96 % of control; the T/C (dose: 25.0 mg/kg/injection, schedule: Q04DX003 (ip), vehicle: saline) is 100 % of control and 113 % of control.

As for `COC(=O)C1C2CCCN2OC1(C)CO` (configuration not stated), the T/C was 100 % of control (dose: 7.5 mg/kg/injection, schedule: Q01DX005 (ip), vehicle: saline); 106 % of control (dose: 15.0 mg/kg/injection, schedule: Q01DX005 (ip), vehicle: saline); 203 % of control (dose: 60.0 mg/kg/injection, schedule: Q01DX005 (ip), vehicle: saline); 96 % of control (dose: 120.0 mg/kg/injection, schedule: Q01DX005 (ip), vehicle: saline); 99 % of control (dose: 240.0 mg/kg/injection, schedule: Q01DX005 (ip), vehicle: saline).

As to `N=C1OC(C(Cl)(Cl)Cl)N(c2cccc(F)c2)C1=O` (configuration not stated), the T/C is 100 % of control (dose: 60.0 mg/kg/injection, schedule: Q01DX005 (ip), vehicle: Klucel + Tween-80); 100 % of control (dose: 120.0 mg/kg/injection, schedule: Q01DX005 (ip), vehicle: Klucel + Tween-80); 89 % of control (dose: 240.0 mg/kg/injection, schedule: Q01DX005 (ip), vehicle: Klucel + Tween-80).

On to `CC(=O)Nc1cc([N+]#N)ccc1S(=O)(=O)O`, for which the T/C reads like this: (dose: 50.0 mg/kg/injection, schedule: Q01DX009 (ip), vehicle: saline with Tween-80) 109 % of control; under setting [4], 93 % of control; under setting [5], 89 % of control.

As for `CC(=O)OCC1OC(OC2C=C(O[Si](C)(C)C)C[C@H]3C(=O)C=CC(=O)[C@@H]23)C(OC(C)=O)C(OC(C)=O)C1OC(C)=O` (some centres not stated), the T/C (dose: 7.5 mg/kg/injection, schedule: Q01DX005 (ip), vehicle: saline with Tween-80) is 98 % of control; the T/C (dose: 15.0 mg/kg/injection, schedule: Q01DX005 (ip), vehicle: saline with Tween-80) was 98 % of control; the T/C under setting [6] was 98 % of control and 102 % of control.

Regarding `CCOc1ccc(C(=O)Nc2c(C)cc(C)cc2C)cc1`, the T/C under setting [4] was 90 % of control; the T/C under setting [5] is 95 % of control; the T/C (dose: 400.0 mg/kg/injection, schedule: Q01DX009 (ip), vehicle: saline with Tween-80) was 105 % of control.

For `Nc1ncnc2c1ncn2C1OC(CO)CC1O` (configuration not stated), the T/C (dose: 9.37 mg/kg/injection, schedule: Q01DX009 (ip), vehicle: Klucel (hydroxypropylcellulose) (HPC)) is 109 % of control; the T/C (dose: 18.75 mg/kg/injection, schedule: Q01DX009 (ip), vehicle: Klucel (hydroxypropylcellulose) (HPC)) is 104 % of control; the T/C (dose: 37.5 mg/kg/injection, schedule: Q01DX009 (ip), vehicle: Klucel (hydroxypropylcellulose) (HPC)) was 110 % of control; the T/C (dose: 75.0 mg/kg/injection, schedule: Q01DX009 (ip), vehicle: Klucel (hydroxypropylcellulose) (HPC)) is 112 % of control.

As for `COc1cc(OC)c2c(=O)c3ccc([N+](=O)[O-])cc3n(C)c2c1`, the T/C runs as follows: under setting [7], 100 % of control; under setting [8], 100 % of control.

Regarding `CON1C(=O)C(c2ccccc2)c2ccccc21` (configuration not stated), the T/C under setting [6] was 106 % of control, the T/C under setting [9] was 96 % of control and the T/C under setting [10] was 96 % of control.

As for `COC(=O)c1cc2cnc1CSCc1cnc(c(C(=O)OC)c1)CSC2`, the T/C is 96 % of control under setting [11], 96 % of control under setting [12] and 96 % of control under setting [13].

As to `O=C(N/N=C/c1ccccc1O)c1ccccc1O`, the T/C under setting [11] was 100 % of control, the T/C under setting [12] is 96 % of control and the T/C under setting [13] was 99 % of control.

Regarding `Cc1ccc(S(=O)(=O)OC2C=CC(=O)C(OC(=O)c3ccccc3)C2OC(=O)c2ccccc2)cc1` (configuration not stated), the T/C is 102 % of control (dose: 50.0 mg/kg/injection, schedule: Q01DX001 (ip), vehicle: saline with Tween-80); 100 % of control under setting [7]; 91 % of control under setting [8]; 98 % of control under setting [14].

Regarding `CC1=C(C(=O)Nc2cc(C)ccc2C)C(c2cccc([N+](=O)[O-])c2)C(C(=O)Nc2cc(C)ccc2C)=C(C)N1`, the T/C is 88 % of control under setting [15] and 89 % of control under setting [16].

Regarding `NC(=O)C1CCCN(C2OC(COP(=O)(O)OP(=O)(O)OCC3OC(n4cnc5c(=O)[nH]c(N)nc54)C(O)C3O)C(O)C2O)C1` (configuration not stated), the T/C by setting is: under setting [11], 100 % of control; under setting [12], 104 % of control; under setting [13], 100 % of control.

For the compound `O=C(COc1ccc(Cl)cc1Cl)NC(O)C(Cl)(Cl)Cl` (configuration not stated), the T/C runs as follows: under setting [1], 108 % of control; under setting [2], 116 % of control; under setting [3], 100 % of control.

With `Cc1nn(C(N)=S)c(C)c1N=Nc1cc(Cl)ccc1Cl`, the T/C runs as follows: under setting [11], 94 % of control; under setting [12], 86 % of control; under setting [13], 88 % of control.

Consider `COc1ccc(S(=O)(=O)O)cc1N=N/C(=N/Nc1cc(S(=O)(=O)O)ccc1OC)C(=O)Nc1ccccc1`, for which the T/C is 101 % of control under setting [15], 101 % of control under setting [16] and 105 % of control under setting [17].

Take `CCOC(CCl)OCC`: for the setting “dose: 6.25 mg/kg/injection, schedule: Q01DX009 (ip), vehicle: saline”, the T/C is 103 % of control and 105 % of control.

On to `COc1cccc2c1C(=O)c1c(O)c3c(c(O)c1C2=O)C[C@@](O)(C(C)O)C[C@@H]3OC1CC(NC(=O)C(F)(F)F)C(O)C(C)O1` (some centres not stated), for which the T/C runs as follows: (dose: 1.56 mg/kg/injection, schedule: Q01DX009 (ip), vehicle: water) 118 % of control; under setting [18], 150 % of control; under setting [19], 156 % of control and 169 % of control; under setting [20], 181 % of control and 189 % of control.

`COC(=O)C1(C(=O)Nc2ccccc2)N=N1`: the T/C is, setting by setting: under setting [15], 108 % of control; under setting [16], 100 % of control; under setting [17], 103 % of control.

For `CCCCOc1ccc(NN=O)cn1`, the T/C reads like this: (dose: 3.12 mg/kg/injection, schedule: Q01DX009 (ip), vehicle: water) 106 % of control; under setting [18], 92 % of control; under setting [19], 99 % of control; under setting [20], 93 % of control; (dose: 50.0 mg/kg/injection, schedule: Q01DX009 (ip), vehicle: water) 92 % of control and 97 % of control; (dose: 100.0 mg/kg/injection, schedule: Q01DX009 (ip), vehicle: water) 97 % of control. For the same compound, the T/C (dose: 200.0 mg/kg/injection, schedule: Q01DX009 (ip), vehicle: water) was 101 % of control.

Regarding `C=CCNCC(O)C(F)(F)C(F)(F)C(F)(F)C(F)(F)C(F)(F)C(F)(F)F` (configuration not stated), the T/C is 101 % of control under setting [6], 101 % of control under setting [9] and 109 % of control under setting [10].

For `OCC1CC2(C1)CC(CO)C2` (configuration not stated), the T/C runs as follows: under setting [7], 97 % of control; under setting [8], 104 % of control; under setting [14], 99 % of control.
